The numbers were not newly measured in patent US20240100062A1, “Methods of Treatment With an Iboga Alkaloid” (priority 2022, published 2024), which cites them from elsewhere.

For series [1] the following is noted: in vivo; cited from earlier work.
Series [2] relates to N-methyl-D-aspartate, kappa and mu opioid, sigma-1 and -2, nicotinic acetylcholine, serotonin transporter, and dopamine transporter. Conditions: cited from earlier work.

Usually half-life stands for the time in which the quantity being followed falls by half. With Noribogaine, the half-life in series [1] is 28 to 49 h. Moreover, in series [2], the “Affinity for neurotransmitter receptors” value is on record as “moderate-to-weak affinity”.
